Data: ChEMBL document CHEMBL1201862, “PubChem BioAssay data set” (2004)
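Results reflect a 48-hour exposure of cells in 96-well plates to compound at five concentrations. GI50 = concentration required for 50% inhibition of growth.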 The source made the active and inactive calls. Cut-off read from the data, not from the text of the source: active = GI50 up to about 1.1 µM and inactive = higher.

Assays:
Assay in all cases: NCI tumour cell line growth inhibition, 48 h
HCC 2998 = test system: HCC 2998
SF-539 = test system: SF-539
SK-MEL-28 = test system: SK-MEL-28
NCI-H460 = test system: NCI-H460
Malme-3M = test system: Malme-3M
SW-620 = test system: SW-620
SF-295 = test system: SF-295
KM12 = test system: KM12
HCT-116 = test system: HCT-116
OVCAR-8 = test system: OVCAR-8
HOP-92 = test system: HOP-92
CCRF-CEM = test system: CCRF-CEM
UACC-257 = test system: UACC-257
IGROV-1 = test system: IGROV-1
K562 = test system: K562
SK-OV-3 = test system: SK-OV-3
EKVX = test system: EKVX

Measured: GI50

CCOC(=O)Nc1ccc(S(=O)(=O)I)cc1.CCOC(=O)Nc1ccc(S(=O)(=O)I)cc1.CN(C=O)C1=C(N(C)C=O)C(N(C)C=O)=C(N(C)C=O)C(=O)C1=O
inactive: HCC 2998 > 100 µM | SF-539 > 100 µM | SK-MEL-28 > 100 µM | NCI-H460 > 100 µM | Malme-3M > 100 µM | SW-620 > 100 µM | SF-295 > 100 µM | KM12 > 100 µM | HCT-116 > 100 µM | OVCAR-8 > 100 µM | HOP-92 > 100 µM | CCRF-CEM > 100 µM | UACC-257 > 100 µM | IGROV-1 > 100 µM | K562 > 100 µM | SK-OV-3 > 100 µM

CC(=O)OC12CCCCC1C1(CCCC1)NC2=O (stereo not drawn)
inactive: HCC 2998 > 100 µM | SF-539 > 100 µM | SK-MEL-28 > 100 µM | NCI-H460 > 100 µM | EKVX > 100 µM | Malme-3M > 100 µM | SW-620 > 100 µM | SF-295 > 100 µM | KM12 > 100 µM | HCT-116 > 100 µM | OVCAR-8 > 100 µM | CCRF-CEM > 100 µM | UACC-257 > 100 µM | IGROV-1 > 100 µM | K562 > 100 µM | SK-OV-3 > 100 µM

COc1ccc(CC2NCCc3c2[nH]c2ccccc32)cc1 (stereo not drawn)
inactive: HCC 2998 23.7 µM | SF-539 42.1 µM | SK-MEL-28 > 100 µM | NCI-H460 35.6 µM | EKVX > 100 µM | SW-620 51.9 µM | SF-295 96.6 µM | KM12 58.1 µM | HCT-116 40 µM | OVCAR-8 > 100 µM | HOP-92 16 µM | CCRF-CEM 46.2 µM | IGROV-1 83 µM | K562 32.6 µM | SK-OV-3 > 100 µM

CC1(C)OCN(c2ccc(N3CCOCC3)cc2)Cn2c1nc1ccccc12
inactive: HCC 2998 > 100 µM | SF-539 88.1 µM | SK-MEL-28 > 100 µM | NCI-H460 > 100 µM | EKVX > 100 µM | Malme-3M > 100 µM | SW-620 34.1 µM | SF-295 > 100 µM | KM12 > 100 µM | HCT-116 65.9 µM | OVCAR-8 > 100 µM | HOP-92 > 100 µM | CCRF-CEM 40.7 µM | UACC-257 46.1 µM | IGROV-1 > 100 µM | K562 > 100 µM | SK-OV-3 > 100 µM

Cc1nc2ccccc2c(=O)n1/N=C(\N=N\c1cc(Cl)ccc1Cl)c1cccc(-c2ccco2)c1
inactive: HCC 2998 > 100 µM | SF-539 > 100 µM | SK-MEL-28 > 100 µM | NCI-H460 > 100 µM | EKVX > 100 µM | Malme-3M > 100 µM | SW-620 > 100 µM | SF-295 > 100 µM | KM12 82.6 µM | HCT-116 53.3 µM | OVCAR-8 95.9 µM | HOP-92 27.6 µM | CCRF-CEM > 10 µM | UACC-257 > 100 µM | IGROV-1 61.4 µM | K562 > 10 µM | SK-OV-3 > 100 µM

COc1cccc(N2C(=O)[C@H]3[C@H]4CC(C(C)(C)C)CC[C@H]4c4c([nH]c5ccccc45)[C@H]3C2=O)c1 (stereo partly drawn)
inactive: HCC 2998 28.4 µM | SF-539 23 µM | SK-MEL-28 18.7 µM | EKVX 20 µM | Malme-3M 20.6 µM | SW-620 17.4 µM | SF-295 15.1 µM | KM12 39 µM | OVCAR-8 14.9 µM | CCRF-CEM 13.7 µM | UACC-257 20.6 µM | IGROV-1 17.1 µM | K562 14 µM | SK-OV-3 20.8 µM

Cc1ccc(NC(=O)C(=O)C2NC(=S)NC2=O)c([N+](=O)[O-])c1 (stereo not drawn)
inactive: HCC 2998 > 100 µM | SF-539 > 100 µM | SK-MEL-28 > 100 µM | NCI-H460 > 100 µM | EKVX 57.3 µM | Malme-3M > 100 µM | SW-620 > 100 µM | SF-295 > 100 µM | KM12 > 100 µM | HCT-116 > 100 µM | OVCAR-8 > 100 µM | HOP-92 45.5 µM | CCRF-CEM > 100 µM | UACC-257 > 100 µM | IGROV-1 > 100 µM | K562 > 100 µM | SK-OV-3 > 100 µM

CC(=O)c1cc2c3c(c1)c1cc4c(cc1c(=O)n3CC2)OCO4
inactive: HCC 2998 > 100 µM | SF-539 32.6 µM | SK-MEL-28 65.3 µM | NCI-H460 11.2 µM | EKVX 46.2 µM | Malme-3M 23.3 µM | SW-620 7.78 µM | SF-295 26.9 µM | KM12 8.63 µM | HCT-116 4.71 µM | OVCAR-8 8.3 µM | HOP-92 54.8 µM | CCRF-CEM 11.9 µM | UACC-257 26.7 µM | IGROV-1 28.8 µM | K562 18.1 µM | SK-OV-3 > 100 µM

COc1c(C2=NC(C(C)C)CO2)ccc2ccccc12 (stereo not drawn)
inactive: HCC 2998 23.7 µM | SF-539 34.8 µM | SK-MEL-28 38.6 µM | NCI-H460 9.25 µM | EKVX 37.1 µM | Malme-3M 35.8 µM | SW-620 45 µM | SF-295 26.7 µM | KM12 28.1 µM | OVCAR-8 41.5 µM | HOP-92 30.1 µM | CCRF-CEM 15.3 µM | UACC-257 34.2 µM | IGROV-1 71 µM | K562 15.1 µM | SK-OV-3 > 100 µM

CCN(CC)CCC(=O)Nc1ccc2c(c1)C(=O)c1ccc(NC(=O)CCN(CC)CC)cc1C2=O
inactive: HCC 2998 > 100 µM | SF-539 3.51 µM | SK-MEL-28 12.2 µM | NCI-H460 1.38 µM | EKVX 3.25 µM | SW-620 2.24 µM | SF-295 11.3 µM | KM12 1.81 µM | HCT-116 2.19 µM | OVCAR-8 4.16 µM | HOP-92 12.8 µM | CCRF-CEM 3.55 µM | UACC-257 14.8 µM | IGROV-1 4.06 µM | K562 3.29 µM | SK-OV-3 9.73 µM

c1cnc2nc3n(c2c1)CSC3
inactive: HCC 2998 > 100 µM | SF-539 > 100 µM | SK-MEL-28 > 100 µM | NCI-H460 > 100 µM | EKVX > 100 µM | Malme-3M > 100 µM | SW-620 > 100 µM | SF-295 > 100 µM | KM12 > 100 µM | OVCAR-8 > 100 µM | HOP-92 > 100 µM | CCRF-CEM > 100 µM | UACC-257 > 100 µM | IGROV-1 > 100 µM | K562 > 100 µM | SK-OV-3 > 100 µM

CCc1c(OC(C)=O)c2c(NC3OC(COC(C)=O)C(OC(C)=O)C(OC(C)=O)C3OC(C)=O)nc(OC)nc2oc1=O (stereo not drawn)
inactive: HCC 2998 > 100 µM | SF-539 > 100 µM | NCI-H460 > 100 µM | EKVX > 100 µM | Malme-3M > 100 µM | SW-620 > 100 µM | SF-295 > 100 µM | KM12 > 100 µM | HCT-116 > 100 µM | OVCAR-8 > 100 µM | CCRF-CEM > 100 µM | UACC-257 > 100 µM | IGROV-1 > 100 µM | K562 > 100 µM | SK-OV-3 > 100 µM

CC1CCC2(OCCO2)[C@]2(C)CC(O)C(=O)C=C12 (stereo partly drawn)
inactive: HCC 2998 > 100 µM | SF-539 > 100 µM | SK-MEL-28 > 100 µM | NCI-H460 > 100 µM | EKVX > 100 µM | Malme-3M > 100 µM | SW-620 > 100 µM | SF-295 > 100 µM | KM12 > 100 µM | OVCAR-8 > 100 µM | HOP-92 > 100 µM | CCRF-CEM > 100 µM | UACC-257 > 100 µM | IGROV-1 > 100 µM | K562 > 100 µM | SK-OV-3 > 100 µM

C/C(CN1C(=O)c2ccccc2C1=O)=N\NS(=O)(=O)c1ccc(Cl)cc1
inactive: HCC 2998 > 100 µM | SF-539 > 100 µM | NCI-H460 > 100 µM | EKVX > 100 µM | Malme-3M > 100 µM | SW-620 > 100 µM | SF-295 > 100 µM | KM12 > 100 µM | HCT-116 > 100 µM | OVCAR-8 > 100 µM | CCRF-CEM > 100 µM | UACC-257 > 100 µM | IGROV-1 > 100 µM | K562 > 100 µM

Cc1ccc(Nc2nc3c(s2)C(=O)c2ccccc2C3=O)cc1
inactive: HCC 2998 2.01 µM | SF-539 5.35 µM | SK-MEL-28 1.62 µM | NCI-H460 1.94 µM | EKVX 5.14 µM | Malme-3M 1.92 µM | SW-620 1.69 µM | SF-295 1.6 µM | KM12 1.55 µM | OVCAR-8 2.18 µM | HOP-92 2.86 µM | CCRF-CEM 1.58 µM | UACC-257 1.75 µM | IGROV-1 1.64 µM | K562 2.29 µM | SK-OV-3 24.9 µM

O=C1[C@H]2ON(c3ccccc3)C(c3ccccc3)[C@H]2C(=O)N1c1ccc(Cc2ccc(N3C(=O)[C@@H]4ON(c5ccccc5)C(c5ccccc5)[C@@H]4C3=O)cc2)cc1 (stereo partly drawn)
inactive: HCC 2998 > 100 µM | SF-539 > 100 µM | SK-MEL-28 > 100 µM | NCI-H460 > 100 µM | Malme-3M > 100 µM | SW-620 > 100 µM | SF-295 > 100 µM | KM12 > 100 µM | HOP-92 > 100 µM | CCRF-CEM > 100 µM | UACC-257 > 100 µM | IGROV-1 > 100 µM | K562 > 100 µM | SK-OV-3 > 100 µM

O=S(=O)(N/N=C/c1ccc(Cl)c(Cl)c1)c1ccccc1
inactive: HCC 2998 30.2 µM | SF-539 44.8 µM | SK-MEL-28 72.3 µM | EKVX 64.9 µM | Malme-3M > 100 µM | SW-620 53 µM | SF-295 33.9 µM | KM12 29 µM | HCT-116 35.1 µM | OVCAR-8 25.7 µM | HOP-92 9.82 µM | CCRF-CEM 48.1 µM | UACC-257 38.8 µM | IGROV-1 33.3 µM | K562 33.5 µM | SK-OV-3 39.7 µM
